According to ChEMBL document CHEMBL2412967, “A FRET-based assay for the discovery of West Nile Virus NS2B-NS3 protease inhibitors” (Bioorg Med Chem Lett, 2013):
Peptide text beside a SMILES is read from it.

What was measured:
West Nile virus [1] = assay: Ratio of kcat to Km for West Nile Virus NS2B-NS3 protease expressed in Escherichia coli BL21 (DE3) after 1 hr by colorimetric assay
West Nile virus [2] = assay: Activity at West Nile Virus NS2B-NS3 protease expressed in Escherichia coli BL21 (DE3) after 1 hr by colorimetric assay
West Nile virus [3] = assay: Activity at West Nile Virus NS2B-NS3 protease expressed in Escherichia coli BL21 (DE3) after 1 hr by FRET assay
West Nile virus [4] = assay: Ratio of kcat to Km for West Nile Virus NS2B-NS3 protease expressed in Escherichia coli BL21 (DE3) after 1 hr by FRET assay

`COc1ccc2c(CC(=O)N[C@@H](CCCCN)C(=O)N[C@@H](CCCCN)C(=O)N[C@@H](CCCNC(=N)N)C(=O)NCC(=O)NCC(Nc3ccc([N+](=O)[O-])cc3[N+](=O)[O-])C(=O)N[C@@H](C)C(=O)N[C@@H](CCCCN)C(N)=O)cc(=O)oc2c1` (stereo partly specified) (HELM PEPTIDE1{[COc1ccc2c(CC(=O)[*:2])cc(=O)oc2c1].K.K.R.G.[C[C@H](NC(=O)C(CN[*:1])Nc1ccc([N+](=O)[O-])cc1[N+](=O)[O-])C(=O)N[C@@H](CCCCN)C(N)=O]}$$$$V2.0) gave a kcat/Km (West Nile virus [1]) of 3760 M⁻¹ s⁻¹, a Km (West Nile virus [2]) of 69.9 µM and a kcat (West Nile virus [2]) of 0.263 s⁻¹. The Km (West Nile virus [3]) was 3.35 µM, the kcat (West Nile virus [3]) was 0.0717 s⁻¹ and the kcat/Km (West Nile virus [4]) was 21400 M⁻¹ s⁻¹.
